Measurements: US12157730B2, “Heteroaryl derivative, method for producing same, and pharmaceutical composition comprising same as effective component” (VORONOI INC., priority 2019, dated 2024)

Biological target: T1, Ba/F3 cell EGFR Exon20 ins NPH (Homo sapiens, UniProt P00533, INS773NPH)
T1 construct: expressed in transfected cells; host or cells: Ba/F3
Experiment: Ba/F3 cell proliferation suppression, EGFR Exon20 ins NPH
Type: cell-based
Details: GI50 class; Ba/F3 cell line with NPH inserted at Exon20 of EGFR; 72 hours
Description: The following experiment was carried out to evaluate the suppression activity of the compounds according to the present invention against proliferation of Ba/F3 and lung cancer cells which express EGFR mutations.
Of the cancer cell lines expressing the EGFR gene, A549 was cultured after adding 10% FBS (HyClone) to DMEM (Invitrogen), and RPMI-1640 (Invitrogen) with 10% FBS was used for the other cancer cells. For the Ba/F3 cells, RPMI-1640 with 10% FBS and 5 ng/ml IL-3 (R&D Systems) was used. The transduced Ba/F3 cells were cultured by adding 1 ug/ml puromycin (Invitrogen) to the same medium.
24 hours before treatment with the compounds, 3000 to 5000 cells were distributed into each well of a white clear bottom 96 well plate (Corning). The compounds were diluted in dimethylsulfoxide (dilution ratio 3:1; 12 concentrations total) and injected 0.5 ul each for a final concentration of 0.3 nM to 50 um. As for measurement of live cells, 72 hours after treatment with the compounds, a CellTiter-Glo luminescent cell-viability reagent (Promega) was used to store the cells at room temperature for 10 minutes, followed by measurement of luminescence using a reader (SynergyNeo, Biotek). Each test was repeated three times.
The result was calculated as a cell growth ratio (%) compared to a control. The program GraphPad Prism version 5.0 was used to draw the graphs and calculate the GI50 values.

SMILES	Ba/F3 (NPH) Activity
C=CC(=O)Nc1cc(Nc2cc(N3OCC[C@@H]3c3ccc(Cl)c(Cl)c3)ncn2)c(OC)cc1N(C)CCOC [compound 679, N-(5-((6-((R)-3-(3,4-dichlorophenyl)isoxazolidine-2-yl)pyrimidine-4-yl)amino)-4-methoxy-2-((2-methoxyethyl)(methyl)amino)phenyl) acrylamide]	B (50 nM ≤ GI50 < 500 nM)
C=CC(=O)Nc1cc(Nc2cc(N3OCC[C@@H]3c3cc(F)cc(Cl)c3)ncn2)c(OC)cc1N1CCC(N2CCN(C3CC3)CC2)CC1 [Example 163, N-(5-((6-((R)-3-(3-chloro-5-fluorophenyl)isoxazolidine-2-yl)pyrimidine-4-yl)amino)-2-(4-(4-cyclopropylpiperazine-1-yl)piperidine-1-yl)-4-methoxyphenyl) acrylamide]	A (GI50 < 50 nM)
C=CC(=O)Nc1cc(Nc2cc(N3OCC[C@@H]3c3ccc(Cl)cc3F)ncn2)c(OC)cc1N1CCC(N2C[C@@H]3C[C@H]2CO3)CC1 [compound 373, N-(2-(4-((1S,4S)-2-oxa-5-azabicyclo[2.2.1]heptane-5-yl)piperidine-1-yl)-5-((6-((R)-3-(4-chloro-2-fluorophenyl)isoxazolidine-2-yl)pyrimidine-4-yl)amino)-4-methoxyphenyl) acrylamide]	A (GI50 < 50 nM)
C=CC(=O)Nc1cc(Nc2cc(N3OCC[C@@H]3c3cc(F)cc(F)c3)ncn2)c(OC)cc1N1CCC(N2CCN(C3CCC3)CC2)CC1 [Example 68, N-(2-(4-(4-cyclobutylpiperazine-1-yl)piperidine-1-yl)-5-((6-((R)-3-(3,5-difluorophenyl)isoxazolidine-2-yl)pyrimidine-4-yl)amino)-4-methoxyphenyl) acrylamide]	A (GI50 < 50 nM)
C=CC(=O)Nc1cc(Nc2cc(N3OCC[C@@H]3c3ccc(Cl)c(Cl)c3)ncn2)c(OC)cc1N1C[C@@H]2C[C@H]1CN2C [compound 684, N-(5-((6-((R)-3-(3,4-dichlorophenyl)isoxazolidine-2-yl)pyrimidine-4-yl)amino)-4-methoxy-2-((1S,4S)-5-methyl-2,5-diazabicyclo[2.2.1]heptane-2-yl)phenyl) acrylamide]	A (GI50 < 50 nM)
C=CC(=O)Nc1cc(Nc2cc(N3OCC[C@@H]3Cc3cccc(Cl)c3F)ncn2)c(OC)cc1N1CCC(N2CCN(C3CC3)CC2)CC1 [compound 1020, N-(5-((6-((S)-3-(3-chloro-2-fluorobenzyl)isoxazolidine-2-yl)pyrimidine-4-yl)amino)-2-(4-(4-cyclopropylpiperazine-1-yl)piperidine-1-yl)-4-methoxyphenyl) acrylamide]	A (GI50 < 50 nM)
C=CC(=O)Nc1cc(Nc2cc(N3OCC[C@@H]3c3cccc(C#N)c3)ncn2)c(OC)cc1N1CCC(N2CCN(C3COC3)CC2)CC1 [Example 196, N-(5-((6-((R)-3-(3-cyanophenyl)isoxazolidine-2-yl)pyrimidine-4-yl)amino)-4-methoxy-2-(4-(4-(oxetane-3-yl)piperazine-1-yl)piperidine-1-yl)phenyl)acrylamide]	A (GI50 < 50 nM)
C=CC(=O)Nc1cc(Nc2cc(N3OCC[C@@H]3Cc3cccc(Cl)c3F)ncn2)c(OC)cc1N1CCC(N2C[C@H]3C[C@@H]2CO3)CC1 [compound 1021, N-(2-(4-((1R,4R)-2-oxa-5-azabicyclo [2.2.1]heptane-5-yl)piperidine-1-yl)-5-((6-((S)-3-(3-chloro-2-fluorobenzyl)isoxazolidine-2-yl)pyrimidine-4-yl)amino)-4-methoxyphenyl) acrylamide]	A (GI50 < 50 nM)
C#Cc1cccc([C@H]2CCON2c2cc(Nc3cc(NC(=O)C=C)c(N4CCC(N(C)C)CC4)cc3OC)ncn2)c1 [compound 647, N-(2-(4-(dimethylamino)piperidine-1-yl)-5-((6-((R)-3-(3-ethynylphenyl)isoxazolidine-2-yl)pyrimidine-4-yl)amino)-4-methoxyphenyl) acrylamide]	A (GI50 < 50 nM)
C=CC(=O)Nc1cc(Nc2cc(N3OCC[C@@H]3c3ccc(C)nc3)ncn2)c(OC)cc1N1C[C@H]2C[C@@H]1CN2CC [Example 51, N-(2-((1R,4R)-5-ethyl-2,5-diazabicyclo [2.2.1]heptane-2-yl)-4-methoxy-5-((6-((R)-3-(6-methylpyridine-3-yl)isoxazolidine-2-yl)pyrimidine-4-yl)amino)phenyl) acrylamide]	C (500 nM ≤ GI50 < 5000 nM)
C=CC(=O)Nc1cc(Nc2cc(N3OCC[C@@H]3c3ccc(F)c(Cl)c3)ncn2)c(OC)cc1N1CCN(C(C)=O)CC1 [compound 907, N-(2-(4-acetylpiperazine-1-yl)-5-((6-((R)-3-(3-chloro-4-fluorophenyl)isoxazolidine-2-yl)pyrimidine-4-yl)amino)-4-methoxyphenyl) acrylamide]	A (GI50 < 50 nM)
C=CC(=O)Nc1cc(Nc2cc(N3OCC[C@@H]3c3ccccc3)ncn2)c(OC)cc1N1CCC(N2CCN(CCN(C)C)CC2)CC1 [compound 739, N-(2-(4-(4-(2-(dimethylamino)ethyl)piperazine-1-yl)piperidine-1-yl)-4-methoxy-5-((6-((R)-3-phenylisoxazolidine-2-yl)pyrimidine-4-yl)amino)phenyl) acrylamide]	B (50 nM ≤ GI50 < 500 nM)
C=CC(=O)Nc1cc(Nc2cc(N3OCC[C@@H]3Cc3cccc(F)c3)ncn2)c(OC)cc1N1CCC(N2CCN(C3CC3)[C@H](C)C2)CC1 [compound 994, N-(2-(4-((R)-4-cyclopropyl-3-methylpiperazine-1-yl)piperidine-1-yl)-5-((6-((S)-3-(3-fluorobenzyl)isoxazolidine-2-yl)pyrimidine-4-yl)amino)-4-methoxyphenyl) acrylamide]	A (GI50 < 50 nM)
C=CC(=O)Nc1cc(Nc2cc(N3OCC[C@@H]3c3cccc(Cl)c3F)ncn2)c(OC)cc1N1CCC(N2CCN(C3CC3)[C@H](C)C2)CC1 [Example 180, N-(5-((6-((R)-3-(3-chloro-2-fluorophenyl)isoxazolidine-2-yl)pyrimidine-4-yl)amino)-2-(4-((R)-4-cyclopropyl-3-methylpiperazine-1-yl)piperidine-1-yl)-4-methoxyphenyl) acrylamide]	A (GI50 < 50 nM)
C=CC(=O)Nc1cc(Nc2cc(N3OCC[C@@H]3c3cccc(OC)c3)ncn2)c(OC)cc1N1CCC(N2CCN(C)CC2)CC1 [Example 40, N-(4-methoxy-5-((6-((R)-3-(3-methoxyphenyl)isoxazolidine-2-yl)pyrimidine-4-yl)amino)-2-(4-(4-methylpiperazine-1-yl)piperidine-1-yl)phenyl) acrylamide]	B (50 nM ≤ GI50 < 500 nM)
C=CC(=O)Nc1cc(Nc2cc(N3OCC[C@@H]3c3cc(F)ccc3F)ncn2)c(OC)cc1N1CCC(N2CCO[C@H](C)C2)CC1 [compound 822, N-(5-((6-((R)-3-(2,5-difluorophenyl)isoxazolidine-2-yl)pyrimidine-4-yl)amino)-4-methoxy-2-(4-((R)-2-methylmorpholino)piperidine-1-yl)phenyl) acrylamide]	A (GI50 < 50 nM)
C=CC(=O)Nc1cc(Nc2cc(N3OCC[C@@H]3c3ccc(F)c(F)c3)ncn2)c(OC)cc1N1CCC(N(C)C)CC1 [compound 459, N-(5-((6-((R)-3-(3,4-difluorophenyl)isoxazolidine-2-yl)pyrimidine-4-yl)amino)-2-(4-(dimethylamino)piperidine-1-yl)-4-methoxyphenyl) acrylamide]	A (GI50 < 50 nM)
C=CCN1CCN(C2CCN(c3cc(OC)c(Nc4cc(N5OCC[C@@H]5c5cc(F)cc(Cl)c5)ncn4)cc3NC(=O)C=C)CC2)CC1 [Example 214, N-(2-(4-(4-allylpiperazine-1-yl)piperidine-1-yl)-5-((6-((R)-3-(3-chloro-5-fluorophenyl)isoxazolidine-2-yl)pyrimidine-4-yl)amino)-4-methoxyphenyl) acrylamide]	A (GI50 < 50 nM)
C=CC(=O)Nc1cc(Nc2cc(N3OCC[C@@H]3c3ccccc3)ncn2)c(OC)cc1N1CCC(N2CCN(C3CCCC3)CC2)CC1 [Example 97, N-(2-(4-(4-cyclopentylpiperazine-1-yl)piperidine-1-yl)-4-methoxy-5-((6-((R)-3-phenylisoxazolidine-2-yl)pyrimidine-4-yl)amino)phenyl) acrylamide]	A (GI50 < 50 nM)
C=CC(=O)Nc1cc(Nc2cc(N3OCC[C@@H]3c3ccc(C)nc3)ncn2)c(OC)cc1N1CCC(N(C)C)CC1 [Example 50, N-(2-(4-dimethylaminopiperidine-1-yl)-4-methoxy-5-((6-((R)-3-(6-methylpyridine-3-yl)isoxazolidine-2-yl)pyrimidine-4-yl)amino)phenyl) acrylamide]	B (50 nM ≤ GI50 < 500 nM)
C=CC(=O)Nc1cc(Nc2cc(N3OCC[C@@H]3c3ccc(Cl)c(F)c3)ncn2)c(OC)cc1N(C)CCOC [compound 853, N-(5-((6-((R)-3-(4-chloro-3-fluorophenyl)isoxazolidine-2-yl)pyrimidine-4-yl)amino)-4-methoxy-2-((2-methoxyethyl)(methyl)amino)phenyl) acrylamide]	B (50 nM ≤ GI50 < 500 nM)
